Source: patent US20090012172A1, “Cosmetic/pharmaceutical compositions comprising retinoids and anti-irritants and treatment of keratinization disorders therewith” (GALDERMA RESEARCH & DEVELOPMENT, priority 2005, published 2009)
“Also recorded” adds a separate entry of the source.

What was measured:
[1] = tested on: ear of the BALB/c mouse; assay: Tolerance study: anti-irritant in preventive treatment before topical Differin gel, ear thickness (edema); type: in vivo; details: anti-irritant applied before Differin gel
Protocol: The goal of the present study is to compare the irritant power of a reference gel, comprising 0.1% adapalene, when this treatment is preceded or not preceded by treatment with an anti-irritant.
(§1) The treatment consists of a daily topical application (20 μl) of anti-irritant, formulated in an aqueous/alcoholic vehicle (50% ethanol and 50% water by volume), on the internal face of the right ear of BALB/c mice divided into 15 groups (female mice approximately 9 weeks old), followed by a topical application (20 μl) of Differin® gel (reference gel comprising 0.1% adapalene) at the rate of one application of each formulation per day for 6 days.
(§2) Evaluation is carried out by measurements of the thickness of the ear by means of the Oditest and by clinical observation of the animals from the 2nd to 19th day.

[2] = tested on: skin of the back of the Rhino mouse (comedones); assay: Comedolytic activity of Differin gel alone or preceded by anti-irritant on the Rhino mouse; type: in vivo, RHINO FVB/N RJ-hr (Rhino) mouse
Protocol: The goal of the present study is to compare the comedolytic activity of Differin® gel (reference gel comprising 0.1% adapalene) whether this treatment is preceded or not preceded by a treatment with an anti-irritant.
The treatment consists of a daily topical application of an aqueous/alcoholic vehicle (ethanol/water 50:50) comprising the anti-irritant potassium salt of 18β-glycyrrhetinic acid, followed 30 minutes later by an application of Differin® gel, on the skin of the back of the RHINO FVB/N RJ-hr^th (Rhino) mouse for 18 days.

[3] = tested on: ear of the BALB/c mouse; assay: Study of tolerance of the formulation of Example 4 (non-split treatment), ear thickness; type: in vivo; details: adapalene and anti-irritant in the same formulation
Protocol: as §1, §2
A study of tolerance is carried out according to the protocol of Example 2 with the formulation of Example 4. However, the present case, in contrast to Example 2, relates to a treatment which is not split since the adapalene and the anti-irritant are present in the same formulation.

CC1(C)[C@@H](O)CC[C@]2(C)[C@H]3C(=O)C=C4[C@@H]5C[C@@](C)(C(=O)O)CC[C@]5(C)CC[C@@]4(C)[C@]3(C)CC[C@@H]12 [Enoxolone, 18β-Glycyrrhetinic acid]
effect on the irritation caused by Differin gel (in words) [1]: virtually no effect
effect on the irritation caused by Differin gel (in words) ([1]; listed as enoxolone): does not have an effect on the irritation due to retinoids

CC1(C)[C@@H](O)CC[C@]2(C)[C@H]3C(=O)C=C4[C@@H]5C[C@@](C)(C(=O)[O-])CC[C@]5(C)CC[C@@]4(C)[C@]3(C)CC[C@@H]12.[K+] [Potassium salt of 18β-glycyrrhetinic acid]
effect on the irritation caused by Differin gel (in words) [1]: effective in reducing the irritation due to adapalene; also recorded: significantly reduces the irritation
number of comedones per centimeter ([2]; back of Rhino mice after 18 days of daily topical treatment): statistically equivalent to that of groups 1 and 3
effect on the comedolytic activity of Differin gel (in words) ([2]; split treatment, anti-irritant 30 minutes before Differin gel, 18 days): does not reduce the comedolytic activity
anti-irritant effect (in words) [3]: appears to be an effective anti-irritant
